Experimental data taken from paper PMC3345099 (Journal of Immunology (Baltimore, Md. : 1950), 2012).
Residues, ends and D or L forms follow the SMILES beside them. No end group written: not given here.

Assays:
Assay in all cases: In vitro radiolabeled competitive HLA binding assay
[1] = molecular target: HLA B*08:01 (purified MHC class I) (Homo sapiens, UniProt P01889, A93T/A95T/D138N/E176V/E187T/K202T/Q94N/R180D/S35A/V36M/Y33D/Y91F)
[2] = molecular target: HLA B*07:02 (purified MHC class I) (Homo sapiens, UniProt P01889)
[3] = molecular target: HLA A*02:01 (purified MHC class I) (Homo sapiens, UniProt P04439, D140Y/D185E/D98H/E176V/E277Q/G131W/G231S/I119V/I121R/I166T/I218V/L300P/L318F/N151K/N90K/P208A/P217A/Q86G/Q94H/R138H/R169H/T345S)
[4] = molecular target: HLA A*26:01 (purified MHC class I) (Homo sapiens, UniProt P04439, A114D/A173T/A270S/D101N/D185E/E277Q/E87N/F33Y/G231S/I121R/I218V/K168Q/L180W/L300P/L318F/P208A/P217A/Q86R/Q94H/R138Q/S129P/T187R/T323A/T345S/V100A/V358M)
[5] = molecular target: HLA B*40:01 (purified MHC class I) (Homo sapiens, UniProt P01889, A65T/A93T/A95T/D138N/D98Y/E176V/E69K/N87E/Q56L/Q94N/R180L/S121R/S35A/S48T/T167S/V36M/W171L/Y33H/Y91S)
[6] = molecular target: HLA B*40:02 (purified MHC class I) (Homo sapiens, UniProt P01889, A65T/A93T/A95T/D138N/D201E/D98Y/E176V/E204Q/E69K/K202T/N87E/Q56L/Q94N/R180L/S48T/Y33H/Y91S)

Compound: CC(C)C[C@H](NC(=O)[C@H](CCC(=O)O)NC(=O)[C@H](CC(=O)O)NC(=O)[C@H](CS)NC(=O)[C@H](CCCCN)NC(=O)[C@H](CCCCN)NC(=O)[C@H](CCCCN)NC(=O)[C@H](CO)NC(=O)[C@@H](N)Cc1c[nH]cn1)C(=O)O
- IC50 [1]: 764 nM

Compound: CC[C@H](C)[C@H](N)C(=O)N1CCC[C@H]1C(=O)N[C@@H](Cc1ccccc1)C(=O)N[C@@H](Cc1ccc(O)cc1)C(=O)NCC(=O)N[C@@H](CCCCN)C(=O)N[C@@H](C)C(=O)N[C@H](C(=O)O)[C@@H](C)CC
- IC50 [2]: 497 nM

Compound: CC(C)C[C@H](NC(=O)[C@H](C)NC(=O)[C@H](CC(C)C)NC(=O)[C@@H](N)CC(C)C)C(=O)N[C@@H](CC(C)C)C(=O)N[C@@H](CO)C(=O)N[C@@H](CS)C(=O)N[C@@H](CC(C)C)C(=O)N[C@H](C(=O)N[C@H](C(=O)O)C(C)C)[C@@H](C)O
- IC50 [3]: 357 nM

Compound: CSCC[C@H](NC(=O)[C@H](CO)NC(=O)[C@H](CS)NC(=O)[C@H](CS)NC(=O)[C@@H](NC(=O)[C@@H](NC(=O)[C@@H](N)CC(=O)O)C(C)C)C(C)C)C(=O)N[C@@H](CO)C(=O)N[C@@H](Cc1ccc(O)cc1)C(=O)O (H-DVVCCSMSY-OH)
- IC50 [4]: 25 nM

Compound: FLVGQLFTF
- IC50 [3]: 67 nM

Compound: GIDPNIRTGV
- IC50 [3]: 722 nM

Compound: GVDPNIRTGV
- IC50 [3]: 351 nM

Compound: HPALVFDIT
- IC50 [2]: 160 nM

Compound: LEDRDRSEL
- IC50 [5]: 426 nM
- IC50 [6]: 4.27 µM

Compound: RLWHYPCTV
- IC50 [3]: 12 nM

Compound: SLLAPGAKQNV
- IC50 [3]: 513 nM

Compound: VLSDFKTWL
- IC50 [3]: 305 nM
